Measured values from PubChem BioAssay (NCI).
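Protocol summary: plate cells (96-well), add compound at 5 concentrations, incubate 48 h, interpolate endpoints linearly. TGI: concentration producing complete growth inhibition.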

Experiments:
Experiment in all cases: NCI-60 cell line screen, 48 h
[1] = test system: HT29 colon
[2] = test system: HOP-92 NSCLC
[3] = test system: HL-60(TB) leukemia
[4] = test system: SF-539 CNS
[5] = test system: UACC-257 melanoma
[6] = test system: HOP-62 NSCLC
[7] = test system: SK-MEL-5 melanoma
[8] = test system: XF 498 CNS
[9] = test system: U251 CNS
[10] = test system: IGROV1 ovarian
[11] = test system: OVCAR-5 ovarian
[12] = test system: SN12C renal
[13] = test system: RPMI-8226 leukemia
[14] = test system: UO-31 renal
[15] = test system: CCRF-CEM leukemia
[16] = test system: NCI-H226 lung
[17] = test system: SF-295 CNS
[18] = test system: RXF-631 renal
[19] = test system: OVCAR-3 ovarian
[20] = test system: KM12 colon
[21] = test system: SNB-19 CNS
[22] = test system: M19-MEL melanoma
[23] = test system: EKVX NSCLC
[24] = test system: SK-MEL-28 melanoma
[25] = test system: LXFL 529 NSCLC
[26] = test system: TK-10 renal
[27] = test system: K-562 leukemia
[28] = test system: NCI-H460 lung
[29] = test system: NCI-H522 lung
[30] = test system: 786-0 renal
[31] = test system: SR leukemia
[32] = test system: ACHN renal
[33] = test system: KM20L2 colon
[34] = test system: CAKI-1 renal
[35] = test system: A549 NSCLC
[36] = test system: M14 melanoma
[37] = test system: A498 renal
[38] = test system: HCT-116 colon
[39] = test system: OVCAR-4 ovarian
[40] = test system: SNB-78 CNS
[41] = test system: RXF 393 renal
[42] = test system: NCI-H23 lung
[43] = test system: HCT-15 colon
[44] = test system: SK-MEL-2 melanoma
[45] = test system: SW-620 colon
[46] = test system: DMS 273 small cell lung
[47] = test system: COLO 205 colon
[48] = test system: OVCAR-8 ovarian
[49] = test system: MOLT-4 leukemia
[50] = test system: SF-268 CNS
[51] = test system: LOX IMVI melanoma
[52] = test system: UACC-62 melanoma
[53] = test system: SNB-75 CNS
[54] = test system: DLD-1 colon
[55] = test system: SK-OV-3 ovarian
[56] = test system: MALME-3M melanoma
[57] = test system: HCC-2998 colon

Measured: TGI

Cc1oc2c(C)c(O)c3c(c2c1C1(C)OCCO1)C(=O)C=C(Cl)C3=O
not listed: [52] | [53] | [54] | [55] | [56] | [57]
> 100 µM: all other assays above

CC(C)NCC(O)COC(=O)c1cccs1 (stereo unspecified)
not listed: [4] | [9] | [16] | [17] | [31] | [37] | [38]
> 100 µM: all other assays above
